The source of these data is ChEMBL document CHEMBL1255549 (Bioorg Med Chem Lett, 2010).

The experiment addresses Maltase-glucoamylase (Homo sapiens, UniProt O43451). Kind of experiment: Inhibition of human recombinant N-terminal domain of maltase-glucoamylase after 60 mins by glucose oxidase assay.

Sequence of Maltase-glucoamylase (O43451 whole entry, the tested form may be a part): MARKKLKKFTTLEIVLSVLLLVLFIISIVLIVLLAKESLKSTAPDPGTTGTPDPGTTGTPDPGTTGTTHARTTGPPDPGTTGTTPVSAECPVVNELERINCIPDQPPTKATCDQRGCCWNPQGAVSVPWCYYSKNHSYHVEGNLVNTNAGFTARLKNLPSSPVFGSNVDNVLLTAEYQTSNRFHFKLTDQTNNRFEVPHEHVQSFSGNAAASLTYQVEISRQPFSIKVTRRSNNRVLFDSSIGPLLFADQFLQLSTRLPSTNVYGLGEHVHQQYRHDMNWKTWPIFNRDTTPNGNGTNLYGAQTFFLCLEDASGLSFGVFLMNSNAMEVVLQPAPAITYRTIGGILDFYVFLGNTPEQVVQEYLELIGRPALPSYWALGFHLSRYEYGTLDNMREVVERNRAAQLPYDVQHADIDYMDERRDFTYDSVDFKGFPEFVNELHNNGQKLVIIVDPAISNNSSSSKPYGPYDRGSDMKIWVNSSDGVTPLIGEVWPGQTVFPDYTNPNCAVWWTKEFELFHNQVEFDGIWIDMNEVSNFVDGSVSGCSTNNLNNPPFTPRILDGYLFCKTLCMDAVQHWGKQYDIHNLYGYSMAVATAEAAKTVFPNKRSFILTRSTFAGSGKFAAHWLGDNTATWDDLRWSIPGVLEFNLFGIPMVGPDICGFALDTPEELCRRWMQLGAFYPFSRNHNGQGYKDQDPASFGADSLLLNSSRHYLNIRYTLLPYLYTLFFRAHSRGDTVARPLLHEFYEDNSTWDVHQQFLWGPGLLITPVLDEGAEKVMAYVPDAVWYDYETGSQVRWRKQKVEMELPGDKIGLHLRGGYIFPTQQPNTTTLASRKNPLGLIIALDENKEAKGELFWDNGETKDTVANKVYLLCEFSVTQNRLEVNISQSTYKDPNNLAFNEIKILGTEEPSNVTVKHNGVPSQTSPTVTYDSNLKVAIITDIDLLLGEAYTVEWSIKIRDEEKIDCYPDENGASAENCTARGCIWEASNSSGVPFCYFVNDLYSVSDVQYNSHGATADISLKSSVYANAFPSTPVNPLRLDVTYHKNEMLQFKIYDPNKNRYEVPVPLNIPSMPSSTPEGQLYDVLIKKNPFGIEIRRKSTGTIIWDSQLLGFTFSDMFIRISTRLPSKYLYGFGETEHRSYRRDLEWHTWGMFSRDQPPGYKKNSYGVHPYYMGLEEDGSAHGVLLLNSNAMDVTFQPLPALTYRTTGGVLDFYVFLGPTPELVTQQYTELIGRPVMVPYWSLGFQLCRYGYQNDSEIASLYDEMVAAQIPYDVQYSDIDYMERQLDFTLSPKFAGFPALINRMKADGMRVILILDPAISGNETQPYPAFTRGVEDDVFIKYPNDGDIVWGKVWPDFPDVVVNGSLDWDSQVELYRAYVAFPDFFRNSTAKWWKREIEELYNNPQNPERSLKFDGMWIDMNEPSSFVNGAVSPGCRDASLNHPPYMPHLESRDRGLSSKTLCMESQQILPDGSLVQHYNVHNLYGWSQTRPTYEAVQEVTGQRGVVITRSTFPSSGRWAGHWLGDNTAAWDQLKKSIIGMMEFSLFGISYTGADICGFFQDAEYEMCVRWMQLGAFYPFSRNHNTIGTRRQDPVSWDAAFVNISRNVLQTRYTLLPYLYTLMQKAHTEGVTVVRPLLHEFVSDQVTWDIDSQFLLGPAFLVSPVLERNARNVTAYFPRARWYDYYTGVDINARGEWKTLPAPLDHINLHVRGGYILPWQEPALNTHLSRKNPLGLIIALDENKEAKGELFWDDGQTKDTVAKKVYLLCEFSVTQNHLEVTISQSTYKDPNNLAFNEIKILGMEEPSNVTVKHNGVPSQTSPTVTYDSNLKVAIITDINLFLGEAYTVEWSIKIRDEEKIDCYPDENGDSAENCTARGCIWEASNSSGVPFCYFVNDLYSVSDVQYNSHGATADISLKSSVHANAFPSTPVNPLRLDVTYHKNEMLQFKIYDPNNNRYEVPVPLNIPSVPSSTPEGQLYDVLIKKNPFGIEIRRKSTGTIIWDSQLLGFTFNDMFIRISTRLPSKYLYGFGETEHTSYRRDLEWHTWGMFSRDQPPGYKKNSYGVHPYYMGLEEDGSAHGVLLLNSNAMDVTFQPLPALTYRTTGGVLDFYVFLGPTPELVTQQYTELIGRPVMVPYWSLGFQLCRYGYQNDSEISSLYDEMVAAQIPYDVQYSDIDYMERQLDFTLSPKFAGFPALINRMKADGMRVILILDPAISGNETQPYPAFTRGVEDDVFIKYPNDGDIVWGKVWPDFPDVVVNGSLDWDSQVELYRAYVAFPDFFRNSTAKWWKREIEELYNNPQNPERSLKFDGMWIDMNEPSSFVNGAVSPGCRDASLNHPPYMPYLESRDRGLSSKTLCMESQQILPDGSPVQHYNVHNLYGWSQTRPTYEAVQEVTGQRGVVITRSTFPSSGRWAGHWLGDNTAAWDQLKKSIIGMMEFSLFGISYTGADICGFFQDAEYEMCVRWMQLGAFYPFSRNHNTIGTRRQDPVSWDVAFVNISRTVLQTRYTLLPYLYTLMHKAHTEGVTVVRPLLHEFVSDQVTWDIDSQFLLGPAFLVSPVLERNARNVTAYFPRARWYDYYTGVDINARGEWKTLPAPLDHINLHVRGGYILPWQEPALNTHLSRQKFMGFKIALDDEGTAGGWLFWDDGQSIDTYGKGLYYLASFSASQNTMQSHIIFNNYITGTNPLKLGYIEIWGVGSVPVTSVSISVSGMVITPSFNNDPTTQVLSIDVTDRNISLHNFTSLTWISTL

In general, Ki refers to the dissociation constant of the complex between target and ligand, obtained from inhibition or displacement. As to `CO[C@@H]([C@H](O)[C@@H](O)CO)[C@H](O)C[S@+]1C[C@@H](O)[C@H](O)[C@H]1CO`, the Ki turned out to be 500 nM.
